Reference: ChEMBL document CHEMBL3734705, “Synthesis and in vitro cytotoxicity of novel C-12 substituted-14-deoxy-andrographolide derivatives as potent anti-cancer agents” (2015)

Experiments:
A549 = experiment: Cytotoxicity against human A549 cells assessed as growth level at 10 uM after 48 hrs by SRB assay; type: functional
Malme-3M = experiment: Cytotoxicity against human MALME-3M cells assessed as growth inhibition at 10 uM after 48 hrs by SRB assay; type: functional; conditions: read-out: GI
U-251 = experiment: Cytotoxicity against human U251 cells assessed as growth inhibition at 10 uM after 48 hrs by SRB assay; type: functional; conditions: U-251, 48 h, read-out: GI
[1] = Cytotoxicity against human BT549 cells assessed as growth level at 10 uM after 48 hrs by SRB assay; type: functional, BT-549
K562 = experiment: Cytotoxicity against human K562 cells assessed as growth inhibition at 10 uM after 48 hrs by SRB assay; type: functional; conditions: K562, 48 h, read-out: GI
EKVX = experiment: Cytotoxicity against human EKVX cells assessed as growth inhibition at 10 uM after 48 hrs by SRB assay; type: functional; conditions: read-out: GI
[2] = Cytotoxicity against human UO31 cells assessed as growth inhibition at 10 uM after 48 hrs by SRB assay; type: functional; conditions: UO-31, 48 h, read-out: GI
[3] = Cytotoxicity against human RXF393 cells assessed as growth inhibition at 10 uM after 48 hrs by SRB assay; type: functional; conditions: RXF 393, 48 h, read-out: GI
[4] = Cytotoxicity against human HCT116 cells assessed as growth level at 10 uM after 48 hrs by SRB assay; type: functional, HCT-116
[5] = Cytotoxicity against human IGROV1 cells assessed as growth inhibition at 10 uM after 48 hrs by SRB assay; type: functional; conditions: IGROV-1, 48 h, read-out: GI
[6] = Cytotoxicity against human Hs578T cells assessed as growth inhibition at 10 uM after 48 hrs by SRB assay; type: functional; conditions: Hs-578T, read-out: GI
MCF7 = experiment: Cytotoxicity against human MCF7 cells assessed as growth level at 10 uM after 48 hrs by SRB assay; type: functional
[7] = Cytotoxicity against human MOLT4 cells assessed as growth level at 10 uM after 48 hrs by SRB assay; type: functional, MOLT-4
[8] = Cytotoxicity against human BT549 cells assessed as growth inhibition at 10 uM after 48 hrs by SRB assay; type: functional; conditions: BT-549, 48 h, read-out: GI
SK-MEL-28 [9] = experiment: Cytotoxicity against human SK-MEL-28 cells assessed as growth level at 10 uM after 48 hrs by SRB assay; type: functional
ACHN = experiment: Cytotoxicity against human ACHN cells assessed as growth level at 10 uM after 48 hrs by SRB assay; type: functional
[10] = Cytotoxicity against human HCT15 cells assessed as growth inhibition at 10 uM after 48 hrs by SRB assay; type: functional; conditions: HCT-15, 48 h, read-out: GI
T47D [11] = experiment: Cytotoxicity against human T47D cells assessed as growth level at 10 uM after 48 hrs by SRB assay; type: functional
[12] = Cytotoxicity against human OVCAR3 cells assessed as growth level at 10 uM after 48 hrs by SRB assay; type: functional, OVCAR-3
T47D [13] = experiment: Cytotoxicity against human T47D cells assessed as growth inhibition at 10 uM after 48 hrs by SRB assay; type: functional; conditions: read-out: GI
[14] = Cytotoxicity against human NCI-ADR-RES cells assessed as growth inhibition at 10 uM after 48 hrs by SRB assay; type: functional; conditions: read-out: GI
[15] = Cytotoxicity against human SF539 cells assessed as growth inhibition at 10 uM after 48 hrs by SRB assay; type: functional; conditions: SF-539, 48 h, read-out: GI
NCI-H460 [16] = experiment: Cytotoxicity against human NCI-H460 cells assessed as growth level at 10 uM after 48 hrs by SRB assay; type: functional
[17] = Cytotoxicity against human Caki1 cells assessed as growth level at 10 uM after 48 hrs by SRB assay; type: functional, CAKI-1
NCI-H460 [18] = experiment: Cytotoxicity against human NCI-H460 cells assessed as growth inhibition at 10 uM after 48 hrs by SRB assay; type: functional; conditions: NCI-H460, 48 h, read-out: GI
[19] = Cytotoxicity against human HCT116 cells assessed as growth inhibition at 10 uM after 48 hrs by SRB assay; type: functional; conditions: HCT-116, 48 h, read-out: GI
SK-MEL-5 = experiment: Cytotoxicity against human SK-MEL-5 cells assessed as growth inhibition at 10 uM after 48 hrs by SRB assay; type: functional; conditions: SK-MEL-5, 48 h, read-out: GI
[20] = Cytotoxicity against human HOP92 cells assessed as growth inhibition at 10 uM after 48 hrs by SRB assay; type: functional; conditions: HOP-92, 48 h, read-out: GI
M14 = experiment: Cytotoxicity against human M14 cells assessed as growth inhibition at 10 uM after 48 hrs by SRB assay; type: functional; conditions: M14, 48 h, read-out: GI
KM12 [21] = experiment: Cytotoxicity against human KM12 cells assessed as growth inhibition at 10 uM after 48 hrs by SRB assay; type: functional; conditions: KM12, 48 h, read-out: GI
MDA-MB-231 = experiment: Cytotoxicity against human MDA-MB-231 cells assessed as growth level at 10 uM after 48 hrs by SRB assay; type: functional
[22] = Cytotoxicity against human DU145 cells assessed as growth level at 10 uM after 48 hrs by SRB assay; type: functional, DU-145
[23] = Cytotoxicity against human OVCAR8 cells assessed as growth inhibition at 10 uM after 48 hrs by SRB assay; type: functional; conditions: OVCAR-8, 48 h, read-out: GI
[24] = Cytotoxicity against human SNB75 cells assessed as growth level at 10 uM after 48 hrs by SRB assay; type: functional, SNB-75
A498 = experiment: Cytotoxicity against human A498 cells assessed as growth inhibition at 10 uM after 48 hrs by SRB assay; type: functional; conditions: A498, 48 h, read-out: GI
NCI-H522 = experiment: Cytotoxicity against human NCI-H522 cells assessed as growth inhibition at 10 uM after 48 hrs by SRB assay; type: functional; conditions: NCI-H522, 48 h, read-out: GI
KM12 [25] = experiment: Cytotoxicity against human KM12 cells assessed as growth level at 10 uM after 48 hrs by SRB assay; type: functional
SN12C = experiment: Cytotoxicity against human SN12C cells assessed as growth level at 10 uM after 48 hrs by SRB assay; type: functional
SK-MEL-28 [26] = experiment: Cytotoxicity against human SK-MEL-28 cells assessed as growth inhibition at 10 uM after 48 hrs by SRB assay; type: functional; conditions: SK-MEL-28, 48 h, read-out: GI
SR = experiment: Cytotoxicity against human SR cells assessed as growth level at 10 uM after 48 hrs by SRB assay; type: functional
NCI-H226 = experiment: Cytotoxicity against human NCI-H226 cells assessed as growth level at 10 uM after 48 hrs by SRB assay; type: functional
[27] = Cytotoxicity against human DU145 cells assessed as growth inhibition at 10 uM after 48 hrs by SRB assay; type: functional; conditions: DU-145, 48 h, read-out: GI

Compound: C=C1CC[C@@H]2[C@](C)(COC(C)=O)[C@H](OC(C)=O)CC[C@@]2(C)[C@@H]1CC(NC1CCCC1)C1=CCOC1=O (some centres not stated)
- Activity (A549): 73.55%
- inhibition of growth at 10 µM (Malme-3M): 15.4%
- inhibition of growth at 10 µM (U-251): 24.6%
- Activity [1]: 55.62%
- inhibition of growth at 10 µM (K562): 51.7%
- inhibition of growth at 10 µM (EKVX): 47.6%
- inhibition of growth at 10 µM [2]: 43.9%
- inhibition of growth at 10 µM [3]: 22%
- Activity [4]: 44.68%
- inhibition of growth at 10 µM [5]: 11.8%
- inhibition of growth at 10 µM [6]: 25.1%
- Activity (MCF7): 72.42%
- Activity [7]: 42.41%
- inhibition of growth at 10 µM [8]: 44.4%
- Activity (SK-MEL-28 [9]): 91.05%
- Activity (ACHN): 78.47%
- inhibition of growth at 10 µM [10]: 33%
- Activity (T47D [11]): 50.85%
- Activity [12]: 68.98%
- inhibition of growth at 10 µM (T47D [13]): 49.1%
- inhibition of growth at 10 µM [14]: 31.5%
- inhibition of growth at 10 µM [15]: 10.6%
- Activity (NCI-H460 [16]): 74.77%
- Activity [17]: 60.7%
- inhibition of growth at 10 µM (NCI-H460 [18]): 25.2%
- inhibition of growth at 10 µM [19]: 55.3%
- inhibition of growth at 10 µM (SK-MEL-5): 65.7%
- inhibition of growth at 10 µM [20]: 74.8%
- inhibition of growth at 10 µM (M14): 20.9%
- inhibition of growth at 10 µM (KM12 [21]): 25.5%
- Activity (MDA-MB-231): 80.39%
- Activity [22]: 91.96%
- inhibition of growth at 10 µM [23]: 46.3%
- Activity [24]: 68.03%
- inhibition of growth at 10 µM (A498): 32%
- inhibition of growth at 10 µM (NCI-H522): 54.4%
- Activity (KM12 [25]): 74.46%
- Activity (SN12C): 78.46%
- inhibition of growth at 10 µM (SK-MEL-28 [26]): 8.95%
- Activity (SR): 19.62%
- Activity (NCI-H226): 84.46%
- inhibition of growth at 10 µM [27]: 8.04%
